These results are taken from patent US8871681B2, “Herbicidal compositions comprising 4-amino-3-chloro-5-fluoro-6-(4-chloro-2-fluoro-3-methoxyphenyl) pyridine-2-carboxylic acid or a derivative thereof and certain sulfonylureas” (Dow AgroSciences LLC, priority 2012, dated 2014).

Experiment [1] relates to SETFA (Setaria faberi, giant foxtail). As to the kind of experiment: Pre-emergence soil-applied weed control, greenhouse (Example V). The class given is in vivo, Setaria faberi Herrm. The conditions noted are these: Table 59 (pre-emergence). The source says:
Seeds or nutlets of the desired test plant species were planted in a soil matrix prepared by mixing a loam soil (32 percent silt, 23 percent clay, and 45 percent sand, with a pH of about 6.5 and an organic matter content of about 1.9 percent) and calcareous grit in an 80 to 20 ratio. The soil matrix was contained in plastic pots with a volume of 1 quart and a surface area of 83.6 square centimeters (cm^2).
Treatments consisted of the benzyl ester of 4-amino-3-chloro-5-fluoro-6-(4-chloro-2-fluoro-3-methoxy-phenyl)pyridine-2-carboxylic acid (compound A) formulated as an SC (suspension concentrate) and various herbicidal components alone and in combination. Forms of compound A were applied on an acid equivalent basis.
Other herbicidal components were applied on an acid equivalent or active ingredient basis and included the acetolactate synthase (ALS)-inhibiting herbicide, flazasulfuron, formulated as Katana®.
Treatment requirements were calculated based upon the rates being tested, the concentration of active ingredient or acid equivalent in the formulation, and a 12 mL application volume at a rate of 187 L/ha.
For treatments comprised of formulated compounds, measured amounts of compounds were placed individually in 25 mL glass vials and diluted in a volume of 1.25% (v/v) Agri-Dex® crop oil concentrate (COC) to obtain 12× stock solutions. […] Application solutions were prepared by adding an appropriate amount of each stock solution (e.g., 1 mL) and diluted to the appropriate final concentrations with the addition of 10 mL of an aqueous mixture of 1.25% (v/v) COC so that the final spray solutions contained 1.25% (v/v) COC. […]
The treated and control pots were placed in a greenhouse and top watered as needed. […] After approximately 4 weeks, the condition of the test plants as compared with that of the untreated plants was determined visually and scored on a scale of 0 to 100 percent where 0 corresponds to no injury or growth inhibition and 100 corresponds to complete kill. […]

Experiment [2] concerns POROL (Portulaca oleracea, portulaca). As to the kind of experiment: Post-emergence herbicidal activity of mixtures in forage crops, greenhouse (Example IV). Format: in vivo, Portulaca oleracea L. The conditions noted are these: Table 58 (forage), foliar-applied, after approximately 21 days. How it is done:
Seeds or root cuttings of the desired test plant species were planted in Sun Gro MetroMix® 306 planting mixture, which typically has a pH of 6.0 to 6.8 and an organic matter content of about 30 percent, in plastic pots with a surface area of 126.6 square centimeters (cm^2). When required to ensure good germination and healthy plants, a fungicide treatment and/or other chemical or physical treatment was applied. The plants were grown for 14-60 days in a greenhouse with an approximate 14 hour photoperiod which was maintained at approximately 28° C. during the day and 24° C. during the night. Nutrients and water were added on a regular basis and supplemental lighting was provided with overhead metal halide 1000-Watt lamps as necessary. The plants were employed for testing when they reached the BBCH13 to BBCH23 leaf stage.
Treatments consisted of the benzyl ester of 4-amino-3-chloro-5-fluoro-6-(4-chloro-2-fluoro-3-methoxy-phenyl)pyridine-2-carboxylic acid (Compound A), formulated as a SC, and a second herbicide alone and in combination.
A measured aliquot of Compound A was placed in 25 milliliter (mL) glass vial and diluted in a volume of 1.25% (v/v) Agri-dex crop oil concentrated to obtain stock solutions. Compound requirements are based upon a 12 mL application volume at a rate of 187 liters per hectare (L/ha). Spray solutions of the second cereal herbicide and experimental compound mixtures were prepared by adding the stock solutions to the appropriate amount of dilution solution to form 12 mL spray solution with active ingredients in two- and three-way combinations. […]
The treated plants and control plants were placed in a greenhouse as described above and watered by sub-irrigation to prevent wash-off of the test compounds. After approximately 21 days, the condition of the test plants, as compared with that of the control plants, was determined visually and scored on a scale of 0 to 100 percent where 0 corresponds to no injury and 100 corresponds to complete kill. […]

On to `COc1c(Cl)ccc(-c2nc(C(=O)OCc3ccccc3)c(Cl)c(N)c2F)c1F` [Compound A Benzyl Ester], for which the entries for the “Visual Weed Control (%) - 27 DAA SETFA Obs” value in experiment [1] (16 gae/ha alone) and in experiment [1] (32 gae/ha alone) were 8% and 15%, respectively. Moreover, the results for the “Weed Control POROL Obs” value in experiment [2] (2.2 gai/ha alone) and in experiment [2] (4.4 gai/ha alone) were 47% and 60%, respectively.
